Test systems include A549; HL-60; HCT-116; COLO 205; HOP-62; SK-MEL-5; HCT-15; MDA-N; M14; LOX IMVI; SK-MEL-28; K562; OVCAR-5; SF-539; HT-29; KM12; UO-31; IGROV-1; SW-620; SK-MEL-2.
Common to all, as to experiment: NCI tumour cell line growth inhibition, 48 h

From ChEMBL document CHEMBL1201862, “PubChem BioAssay data set” (2004) come the findings set out here.

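Protocol summary: plate cells (96-well), add compound at 5 concentrations, incubate 48 h, interpolate endpoints linearly. GI50: concentration for 50% inhibition of growth.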 Activity calls are given as the source filed them. No stated cut-off is given here; in the data, active = GI50 up to about 1.1 µM and inactive = higher.

For the molecule `CN(C)CCCNC(=O)N/N=C/c1ccccn1`, the GI50 in the assay with A549, in the assay with HL-60, with HCT-116, with COLO 205, in the assay with HOP-62 and with SK-MEL-5 was > 10 µM (inactive) each time. For the same molecule, the GI50 with HCT-15 was more than 10 µM; with MDA-N, > 10 µM (inactive); with M14, > 10 µM (inactive); in the assay with LOX IMVI, > 10 µM (inactive); in the assay on SK-MEL-28, > 10 µM (inactive); in the assay with K562, > 10 µM (inactive). The GI50 in the assay with OVCAR-5, in the assay with SF-539, with HT-29, in the assay with KM12, in the assay with UO-31 and with IGROV-1 was > 10 µM (inactive) throughout. For the same molecule, the GI50 in the assay with SW-620 was > 10 µM (inactive).

`CCCCC(=O)c1c(O)nc2sccn2c1=O`: the GI50 with A549, in the assay with HL-60, in the assay on HCT-116, with COLO 205, with HOP-62 and in the assay on SK-MEL-5 was > 10 µM (inactive) throughout. Also, the GI50 was more than 10 µM in the assay on HCT-15; > 10 µM (inactive) in the assay with MDA-N; > 10 µM (inactive) in the assay on M14; > 10 µM (inactive) with LOX IMVI; > 10 µM (inactive) with SK-MEL-28; > 10 µM (inactive) in the assay on SK-MEL-2. Moreover, the GI50 in the assay on OVCAR-5, in the assay with SF-539, in the assay on HT-29, in the assay with KM12, in the assay with UO-31 and in the assay on IGROV-1 was > 10 µM (inactive) each time. For the same molecule, the GI50 in the assay on SW-620 is > 10 µM (inactive).

Take `COc1ccc(C2CC(c3c(O)ccc4ccccc34)=NN2)cc1OC` (stereo unspecified): the GI50 is 4.42 µM (inactive) in the assay with HL-60; 6.12 µM (inactive) with COLO 205; 3.86 µM (inactive) in the assay on HOP-62; 2.82 µM (inactive) with SK-MEL-5; 4.45 µM in the assay on HCT-15; 3.95 µM (inactive) in the assay on MDA-N. The GI50 in the assay with M14 is 4.1 µM (inactive); with SK-MEL-28 it was 5.16 µM (inactive); in the assay on K562, 4.38 µM (inactive); with SK-MEL-2 it was 6 µM (inactive); with OVCAR-5 it was 3.9 µM (inactive); in the assay on SF-539, 4.27 µM (inactive). Further, the GI50 in the assay on HT-29 was 1.89 µM (inactive); in the assay on KM12, 3.52 µM (inactive); with UO-31 it was 2.11 µM (inactive); in the assay on IGROV-1, 4.43 µM (inactive).

As for `Cc1cc(=O)n2nc(CSc3nnc(S)s3)sc2n1`, the GI50 with A549, in the assay on HL-60, with HCT-116, in the assay with COLO 205, in the assay with HOP-62 and with SK-MEL-5 was > 100 µM (inactive) throughout. Besides, the GI50 is more than 100 µM in the assay on HCT-15; > 100 µM (inactive) in the assay with MDA-N; > 100 µM (inactive) with M14; > 100 µM (inactive) in the assay on LOX IMVI; > 100 µM (inactive) in the assay with SK-MEL-28; > 100 µM (inactive) with K562. In addition, the GI50 with SK-MEL-2, with OVCAR-5, with SF-539, in the assay with HT-29, with KM12 and in the assay on UO-31 was > 100 µM (inactive) each time. Also, the GI50 in the assay on IGROV-1 and with SW-620 was > 100 µM (inactive) each time.

Take `Cc1ccc(Nc2nc(C)c(C(=O)CC(=O)C(=O)Nc3c(C)cccc3C(C)(C)C)s2)cc1`: the GI50 was > 100 µM (inactive) with A549; > 100 µM (inactive) in the assay with HL-60; > 100 µM (inactive) in the assay on HCT-116; > 100 µM (inactive) with COLO 205; 38.5 µM (inactive) in the assay with HOP-62; > 100 µM (inactive) in the assay on SK-MEL-5. In addition, the GI50 in the assay on HCT-15 is more than 100 µM; in the assay on MDA-N, > 100 µM (inactive); in the assay with M14, > 100 µM (inactive); with LOX IMVI, > 100 µM (inactive); with K562, > 100 µM (inactive); with SK-MEL-2, > 100 µM (inactive). The GI50 in the assay on OVCAR-5, with SF-539, with HT-29, in the assay on KM12, in the assay on UO-31 and in the assay on IGROV-1 was > 100 µM (inactive) in each case. The GI50 in the assay on SW-620 was > 100 µM (inactive).

For the molecule `CSc1nc(Cl)c2c(n1)Sc1ncnn1C2O` (stereo unspecified), the GI50 in the assay on A549 was 19.8 µM (inactive); in the assay with HL-60, 0.0547 µM (active); in the assay with HCT-116, 5.12 µM (inactive); in the assay on COLO 205, 0.843 µM (active); with HOP-62, 21.8 µM (inactive); in the assay with HCT-15, 4.37 µM. Further, the GI50 was 7.13 µM (inactive) with MDA-N; 14.3 µM (inactive) with M14; 6.37 µM (inactive) in the assay with LOX IMVI; 29.2 µM (inactive) in the assay on SK-MEL-28; 3.62 µM (inactive) with K562; 17.4 µM (inactive) in the assay on SK-MEL-2. For the same molecule, the GI50 in the assay on OVCAR-5 is 17.7 µM (inactive); in the assay with SF-539, 0.318 µM (active); in the assay on HT-29, 12.9 µM (inactive); in the assay on UO-31, 2.55 µM (inactive); in the assay with IGROV-1, 18.9 µM (inactive); in the assay on SW-620 it was 2.88 µM (inactive).

`O=C1C=C(Br)c2c(Br)sc(Br)c21`: the GI50 was 24.5 µM (inactive) with A549; 5.36 µM (inactive) in the assay on HL-60; 6.05 µM (inactive) with HCT-116; 4.83 µM (inactive) in the assay on COLO 205; 24.9 µM (inactive) in the assay on HOP-62; 16.3 µM (inactive) with SK-MEL-5. The GI50 in the assay with HCT-15 is 5.61 µM; in the assay with MDA-N, 13.9 µM (inactive); with M14, 4.54 µM (inactive); in the assay on LOX IMVI, 2.37 µM (inactive); in the assay with SK-MEL-28, 18.9 µM (inactive); in the assay on K562, 4.67 µM (inactive). The GI50 with SK-MEL-2 is 20.7 µM (inactive); in the assay with OVCAR-5 it was 19.1 µM (inactive); in the assay with SF-539 it was 5.13 µM (inactive); in the assay on HT-29, 13.5 µM (inactive); in the assay on KM12, 17 µM (inactive); in the assay on UO-31, 3.4 µM (inactive). In addition, the GI50 in the assay on IGROV-1 was 5.35 µM (inactive); with SW-620, 3.13 µM (inactive).

Consider `CC(NNC(=O)c1cc[n+]([BH2-]C#N)cc1)c1ccccc1F` (stereo unspecified), for which the GI50 is > 100 µM (inactive) in the assay with A549; > 100 µM (inactive) with HL-60; > 100 µM (inactive) with HCT-116; > 100 µM (inactive) in the assay with COLO 205; > 100 µM (inactive) with SK-MEL-5; more than 100 µM in the assay on HCT-15. The GI50 in the assay on MDA-N, in the assay with M14, in the assay on LOX IMVI, with SK-MEL-28, in the assay with K562 and in the assay on SK-MEL-2 was > 100 µM (inactive) throughout. The GI50 in the assay on OVCAR-5, in the assay on SF-539, with KM12, in the assay with UO-31, in the assay on IGROV-1 and with SW-620 was > 100 µM (inactive) in each case.

On to `C[n+]1c(-c2ccc(/C=N/Nc3n[nH]c(=S)n3N/N=C/c3ccc(-c4cn5ccccc5[n+]4C)cc3)cc2)cn2ccccc21`, for which the GI50 in the assay with A549, in the assay on HL-60, with HCT-116, with COLO 205, in the assay with HOP-62 and in the assay on SK-MEL-5 was > 100 µM (inactive) each time. Further, the GI50 with HCT-15 was more than 100 µM; with MDA-N, > 100 µM (inactive); in the assay on M14 it was > 100 µM (inactive); in the assay on SK-MEL-28 it was > 100 µM (inactive); in the assay with K562 it was > 100 µM (inactive); in the assay on OVCAR-5 it was > 100 µM (inactive). The GI50 in the assay with SF-539, in the assay on HT-29, in the assay on KM12, in the assay on UO-31, with IGROV-1 and in the assay with SW-620 was > 100 µM (inactive) throughout.

For the molecule `Cc1cc(-c2nc3cccc(O)c3s2)ccc1N`, the GI50 is 15.7 µM (inactive) in the assay with A549; 22.3 µM (inactive) in the assay with HL-60; 27.3 µM (inactive) with HCT-116; 24.2 µM (inactive) with COLO 205; 27 µM (inactive) with HOP-62; 19.3 µM (inactive) in the assay on SK-MEL-5. The GI50 with HCT-15 is 35 µM; in the assay with MDA-N it was 31.3 µM (inactive); in the assay with M14, 16.2 µM (inactive); in the assay on LOX IMVI, 26.4 µM (inactive); in the assay on SK-MEL-28 it was 51.4 µM (inactive); with K562 it was 45.4 µM (inactive). In addition, the GI50 with SK-MEL-2 was 34.7 µM (inactive); in the assay with SF-539, 57.4 µM (inactive); in the assay with HT-29 it was 36.3 µM (inactive); in the assay with KM12, 10.3 µM (inactive); in the assay on UO-31 it was 4.43 µM (inactive); in the assay on IGROV-1 it was 22.2 µM (inactive). The GI50 in the assay on SW-620 is 46.9 µM (inactive).

`CC(C)(C)c1cc(O)ccc1O` [E319]: the GI50 was > 100 µM (inactive) with A549; 9.73 µM (inactive) in the assay on HL-60; > 57.9 µM (inactive) with HCT-116; > 74.6 µM (inactive) with COLO 205; > 100 µM (inactive) in the assay with HOP-62; > 100 µM (inactive) with SK-MEL-5. The GI50 was more than 100 µM in the assay with HCT-15; > 100 µM (inactive) in the assay with MDA-N; > 100 µM (inactive) in the assay with M14; > 59.3 µM (inactive) with LOX IMVI; > 100 µM (inactive) in the assay with SK-MEL-28; > 68.5 µM (inactive) with K562. In addition, the GI50 is 1.71 µM (inactive) in the assay with SK-MEL-2; > 100 µM (inactive) with OVCAR-5; > 100 µM (inactive) in the assay with SF-539; > 100 µM (inactive) in the assay on HT-29; > 100 µM (inactive) with KM12; > 58.6 µM (inactive) in the assay with UO-31. For the same molecule, the GI50 in the assay with IGROV-1 is > 100 µM (inactive); in the assay with SW-620, 37.8 µM (inactive).
